Test results reported in ChEMBL document CHEMBL1201862, “PubChem BioAssay data set” (2004).
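Growth conditions: 96-well plates. Treatment: test compound, 48 hours, 5 concentrations. Analysis: linear interpolation between bracketing concentrations; unreached endpoints set to highest concentration. At the GI50, growth is halved.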 Activity calls are given as the source filed them. Rule as the data show it: active = GI50 up to about 1.1 µM and inactive = higher.

Columns and labels:
Test in all cases: NCI tumour cell line growth inhibition, 48 h
[1] = test system: COLO 205
[2] = test system: EKVX
[3] = test system: HOP-92
[4] = test system: Hs-578T
[5] = test system: MDA-MB-231
[6] = test system: Malme-3M
[7] = test system: NCI-H226
[8] = test system: NCI-H522
[9] = test system: OVCAR-3
[10] = test system: OVCAR-4
[11] = test system: OVCAR-5
[12] = test system: SF-295
[13] = test system: SK-MEL-28
[14] = test system: SK-MEL-2
[15] = test system: SK-OV-3
[16] = test system: SNB-75
[17] = test system: T47D
[18] = test system: TK-10
[19] = test system: UACC-257
[20] = test system: 786-0
[21] = test system: A498
[22] = test system: A549
[23] = test system: ACHN
[24] = test system: BT-549
[25] = test system: CAKI-1
[26] = test system: CCRF-CEM
[27] = test system: DU-145
[28] = test system: HCC 2998
[29] = test system: HCT-116
[30] = test system: HCT-15
[31] = test system: HOP-62
[32] = test system: HT-29
[33] = test system: IGROV-1
[34] = test system: K562
[35] = test system: KM12
[36] = test system: M14
[37] = test system: MCF7
[38] = test system: MDA-MB-435
[39] = test system: MDA-N
[40] = test system: MOLT-4
[41] = test system: NCI-H23
[42] = test system: NCI-H460
[43] = test system: NCI/ADR-RES
[44] = test system: OVCAR-8
[45] = test system: PC-3
[46] = test system: RXF 393
[47] = test system: SF-268
[48] = test system: SF-539
[49] = test system: SK-MEL-5
[50] = test system: SN12C
[51] = test system: SNB-19
[52] = test system: SR
[53] = test system: SW-620
[54] = test system: U-251
[55] = test system: UACC-62
[56] = test system: UO-31

Measured: GI50

COc1cc(/C=C/C(=O)c2ccc(O)c(OC)c2)ccc1O
inactive: [1] 20.1 µM | [2] 12.3 µM | [3] 27.2 µM | [4] 17.5 µM | [5] 29.1 µM | [6] 22.3 µM | [7] 24.5 µM | [8] 14.5 µM | [9] 18.7 µM | [10] 24.3 µM | [11] 24.8 µM | [12] 20.6 µM | [13] 17.6 µM | [14] 20.3 µM | [15] 13.4 µM | [16] 24.8 µM | [17] 22.9 µM | [18] 46.8 µM | [19] 22.5 µM

Cc1c(O)c(OC2OC(CO)C(O)C(O)C2O)cc2c1CC[C@@H]1C2(C)C(=O)C[C@]2(C)[C@@H]([C@@](C)(O)C(=O)CCC(C)(C)O)[C@H](O)C[C@@]12C (some centres undefined)
> 100 µM: [30]
inactive: [20] > 100 µM | [21] > 100 µM | [22] > 100 µM | [23] > 100 µM | [24] > 100 µM | [25] > 100 µM | [26] > 100 µM | [1] > 100 µM | [27] > 100 µM | [2] > 100 µM | [28] > 100 µM | [29] > 100 µM | [31] > 100 µM | [3] > 100 µM | [32] > 100 µM | [33] > 100 µM | [34] > 100 µM | [35] > 100 µM | [36] > 100 µM | [37] > 100 µM | [5] > 100 µM | [38] > 100 µM | [39] > 100 µM | [40] > 100 µM | [6] > 100 µM | [7] > 100 µM | [41] > 100 µM | [42] > 100 µM | [8] > 100 µM | [43] > 100 µM | [9] > 100 µM | [10] > 100 µM | [11] > 100 µM | [44] > 100 µM | [45] > 100 µM | [46] > 100 µM | [47] > 100 µM | [12] > 100 µM | [48] > 100 µM | [13] > 100 µM | [14] > 100 µM | [49] > 100 µM | [15] > 100 µM | [50] > 100 µM | [51] > 100 µM | [16] > 100 µM | [52] > 100 µM | [53] > 100 µM | [17] > 100 µM | [18] > 100 µM | [54] > 100 µM | [19] > 100 µM | [55] > 100 µM | [56] > 100 µM
